Assay results published in patent US7425608B2, “Method of making metallopeptides” (Palatin Technologies, Inc., priority 1998, dated 2008).
Read-outs that look alike come from different tables or passages of the source. *: point of attachment. Cbz = O=C(OCc1ccccc1)*

Key:
[1] = cited from earlier work
[2] = target: T1, human neutrophil elastase (HNE) (Homo sapiens, UniProt P08246); assay: Human neutrophil elastase inhibition, spectrophotometric assay with chromogenic p-nitroanilide substrate; type: biochemical; settings: individually resynthesised ReO metallopeptides Z-Aaa-Ser-Cys-Val-NH2 (deconvolution of the most active pool)
T1 construct: purchased Sigma (St. Louis, Mo.)
T1 sequence (P08246 30-267): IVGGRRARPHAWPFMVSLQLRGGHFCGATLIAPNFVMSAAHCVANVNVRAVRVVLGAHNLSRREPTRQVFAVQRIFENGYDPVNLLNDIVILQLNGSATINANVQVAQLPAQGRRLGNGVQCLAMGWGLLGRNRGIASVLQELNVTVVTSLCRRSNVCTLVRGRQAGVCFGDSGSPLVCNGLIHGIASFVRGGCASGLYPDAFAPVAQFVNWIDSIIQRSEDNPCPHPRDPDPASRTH
Method: Purified human neutrophil elastase (HNE) was purchased from Sigma (St. Louis, Mo.). The assay was performed spectrophotometrically using a chromogenic p-nitroanilide substrate, MeOSuc-Ala-Ala-Pro-Val-pNA, also purchased from Sigma. The assay protocols were similar to those described by others (e.g., Nakajima K et al: J Biol Chem, 254:4027-4032, 1979). Briefly, 0.05 units of HNE were treated with 1 mM concentration of the library pool in the presence of p-nitroanilide substrate. Spectrophotometric measurement were made at a wavelength of 410 nm. […] Also, among this limited series of compounds, benzyloxycarbonyl group was identified as a preferred R group where Bbb was a Gly, Ala, or Ser residue.
The pool with highest activity, Z-Aaa-Ser-Cys-Val-NH2, was deconvoluted by an iterative resynthesis process. All five individual peptides in this pool were synthesized by the methodologies and protocols of Example 10. Each individual peptide was characterized by mass spectrometry and HPLC. A screening assay was performed as generally described in Example 11. The best results were obtained with Leu or Ile in the position Aaa in the peptide chain. […] Substitution of the three residues Ala, Phe, and Lys(N-Z) at Aaa yielded IC50 values in excess of 1,000 μM.

[3] = related to the ionic core charge of the metal complex

Row | IC50 [2] [µM] | Compound | compartmentalisation / excretion / passage across biological barriers [1, 3] | also measured
1 | – | CCOC(=O)[C@H](C[S-])[N-]CCN[C@@H](C[S-])C(=O)OCC.[O-2].[Tc] [^99mTc-ECD, ethyl cysteinate dimer] | pass through the blood-brain barrier | –
2 | – | C/C(=N\O)C(C)NCC(C)(C)CNC(C)/C(C)=N/O (stereo not shown) [^99mTc-HMPAO, hexamethylpropyleneamine oxime, metal not drawn] | pass through the blood-brain barrier | –
3 | – | O=C(O)CNC(=O)CNC(=O)CNC(=O)CS [^99mTc-MAG3, mercaptoacetylglycylglycylglycine, metal not drawn] | excreted through the kidneys | –
4 | 179 | Cbz-ISCV-NH2 | – | –
5 | 139 | Z-Leu-Ser-Cys-Val-NH2 (Cbz-LSCV-NH2; not fully specified; printed as Z-Leu-Ser-Cys-Val-NH2) | – | –
6 | > 1000 | Z-Lys(N,-Z)-Ser-Cys-Val-NH2 | – | –
7 | – | methoxyisobutylisonitrile [^99mTc-MIBI] | – | compartmentalisation / excretion / passage across biological barriers ([1]; in vivo): compartmentalized in heart muscles
